Reference: PubChem BioAssay (NCI)
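GI50 marks 50% less growth. TGI is the concentration that stops growth completely.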

Key:
Assay in all cases: NCI tumour cell line growth inhibition, 384-well format
NCI/ADR-RES ovarian = tested on: NCI/ADR-RES ovarian
SNB-19 CNS = tested on: SNB-19 CNS
HS 578T breast = tested on: HS 578T breast
OVCAR-8 ovarian = tested on: OVCAR-8 ovarian
SK-MEL-2 melanoma = tested on: SK-MEL-2 melanoma
HCT-15 colon = tested on: HCT-15 colon
HCT-116 colon = tested on: HCT-116 colon
IGROV1 ovarian = tested on: IGROV1 ovarian
CAKI-1 renal = tested on: CAKI-1 renal
SR leukemia = tested on: SR leukemia
COLO 205 colon = tested on: COLO 205 colon
SK-OV-3 ovarian = tested on: SK-OV-3 ovarian
MDA-MB-468 breast = tested on: MDA-MB-468 breast
PC-3 prostate = tested on: PC-3 prostate
K-562 leukemia = tested on: K-562 leukemia
U251 glioblastoma = tested on: U251 glioblastoma
RPMI-8226 leukemia = tested on: RPMI-8226 leukemia
EKVX NSCLC = tested on: EKVX NSCLC
786-0 renal = tested on: 786-0 renal
KM12 colon = tested on: KM12 colon
NCI-H322M lung = tested on: NCI-H322M lung
NCI-H522 lung = tested on: NCI-H522 lung
SW-620 colon = tested on: SW-620 colon
MALME-3M melanoma = tested on: MALME-3M melanoma
MDA-MB-231 breast = tested on: MDA-MB-231 breast
BT-549 breast = tested on: BT-549 breast
A549 NSCLC = tested on: A549 NSCLC
T-47D breast = tested on: T-47D breast
OVCAR-4 ovarian = tested on: OVCAR-4 ovarian
RXF 393 renal = tested on: RXF 393 renal
ACHN renal = tested on: ACHN renal
HT29 colon = tested on: HT29 colon
SK-MEL-5 melanoma = tested on: SK-MEL-5 melanoma
CCRF-CEM leukemia = tested on: CCRF-CEM leukemia
HL-60(TB) leukemia = tested on: HL-60(TB) leukemia
HCC-2998 colon = tested on: HCC-2998 colon
OVCAR-5 ovarian = tested on: OVCAR-5 ovarian
SF-539 CNS = tested on: SF-539 CNS
SK-MEL-28 melanoma = tested on: SK-MEL-28 melanoma
OVCAR-3 ovarian = tested on: OVCAR-3 ovarian
MDA-MB-435 melanoma = tested on: MDA-MB-435 melanoma
SF-268 CNS = tested on: SF-268 CNS
HOP-92 NSCLC = tested on: HOP-92 NSCLC
LOX IMVI melanoma = tested on: LOX IMVI melanoma
TK-10 renal = tested on: TK-10 renal
UACC-62 melanoma = tested on: UACC-62 melanoma
MCF7 breast = tested on: MCF7 breast
MOLT-4 leukemia = tested on: MOLT-4 leukemia
NCI-H460 NSCLC = tested on: NCI-H460 NSCLC
SN12C renal = tested on: SN12C renal
M14 melanoma = tested on: M14 melanoma
HOP-62 NSCLC = tested on: HOP-62 NSCLC
DU-145 prostate = tested on: DU-145 prostate
NCI-H23 lung = tested on: NCI-H23 lung
UACC-257 melanoma = tested on: UACC-257 melanoma
A498 renal = tested on: A498 renal
SF-295 CNS = tested on: SF-295 CNS
SNB-75 CNS = tested on: SNB-75 CNS

`COc1cc(F)ccc1-c1ncnc(Nc2cccc(CS(C)(=N)=O)c2)n1` (centres undefined) was tested, and the GI50 (NCI/ADR-RES ovarian) was 2580 nM, the TGI (NCI/ADR-RES ovarian) was 21.8 µM and the GI50 (SNB-19 CNS) was 988 nM. For the same compound, the TGI (SNB-19 CNS) was > 100 µM, the GI50 (HS 578T breast) was 465 nM and the TGI (HS 578T breast) was 1690 nM. The GI50 (OVCAR-8 ovarian) was 520 nM, the TGI (OVCAR-8 ovarian) was 2610 nM and the GI50 (SK-MEL-2 melanoma) was 1040 nM. The TGI (SK-MEL-2 melanoma) was 2460 nM, the GI50 (HCT-15 colon) was 462 nM and the GI50 (HCT-116 colon) was 300 nM. The TGI (HCT-116 colon) was > 100 µM, the GI50 (IGROV1 ovarian) was 919 nM and the TGI (IGROV1 ovarian) was > 100 µM. The GI50 (CAKI-1 renal) was 404 nM, the TGI (CAKI-1 renal) was > 100 µM and the GI50 (SR leukemia) was 39.5 nM. The TGI (SR leukemia) was 112 nM, the GI50 (COLO 205 colon) was 339 nM and the TGI (COLO 205 colon) was 1920 nM. For the same compound, the GI50 (SK-OV-3 ovarian) was 2550 nM, the TGI (SK-OV-3 ovarian) was 6.68 µM and the GI50 (MDA-MB-468 breast) was 1120 nM. The TGI (MDA-MB-468 breast) was 2470 nM, the GI50 (PC-3 prostate) was 795 nM and the TGI (PC-3 prostate) was 4.96 µM. It also gave a GI50 (K-562 leukemia) of 2000 nM, a TGI (K-562 leukemia) of 15 µM and a GI50 (U251 glioblastoma) of 872 nM. For the same compound, the TGI (U251 glioblastoma) was > 19.9 µM, the GI50 (RPMI-8226 leukemia) was 1700 nM and the TGI (RPMI-8226 leukemia) was 3.08 µM. The GI50 (EKVX NSCLC) was 1280 nM, the TGI (EKVX NSCLC) was 4.28 µM and the GI50 ([…]-0 renal) was 683 nM. The TGI (786-0 renal) was 3.88 µM, the GI50 (KM12 colon) was 322 nM and the TGI (KM12 colon) was 2120 nM. For the same compound, the GI50 (NCI-H322M lung) was 384 nM, the TGI (NCI-H322M lung) was 2610 nM and the GI50 (NCI-H522 lung) was 1770 nM. For the same compound, the TGI (NCI-H522 lung) was 4.12 µM, the GI50 (SW-620 colon) was 776 nM and the TGI (SW-620 colon) was 4.82 µM. It also gave a GI50 (MALME-3M melanoma) of 843 nM, a TGI (MALME-3M melanoma) of 2300 nM and a GI50 (MDA-MB-231 breast) of 559 nM. For the same compound, the TGI (MDA-MB-231 breast) was 2680 nM, the GI50 (BT-549 breast) was 773 nM and the TGI (BT-549 breast) was 2600 nM. The GI50 (A549 NSCLC) was 1610 nM, the TGI (A549 NSCLC) was > 100 µM and the GI50 (T-47D breast) was 3.01 µM. The TGI (T-47D breast) was > 100 µM, the GI50 (OVCAR-4 ovarian) was 1830 nM and the TGI (OVCAR-4 ovarian) was 6.09 µM. It also gave a GI50 (RXF 393 renal) of 228 nM, a TGI (RXF 393 renal) of 586 nM and a GI50 (ACHN renal) of 510 nM. For the same compound, the TGI (ACHN renal) was > 100 µM, the GI50 (HT29 colon) was 1400 nM and the TGI (HT29 colon) was 4.15 µM. For the same compound, the GI50 (SK-MEL-5 melanoma) was 455 nM, the TGI (SK-MEL-5 melanoma) was 1840 nM and the GI50 (CCRF-CEM leukemia) was 299 nM. The TGI (CCRF-CEM leukemia) was 1050 nM, the GI50 (HL-60(TB) leukemia) was 182 nM and the TGI (HL-60(TB) leukemia) was 391 nM. For the same compound, the GI50 (HCC-2998 colon) was 1000 nM, the TGI (HCC-2998 colon) was 3.77 µM and the GI50 (OVCAR-5 ovarian) was 316 nM. The TGI (OVCAR-5 ovarian) was > 100 µM, the GI50 (SF-539 CNS) was 986 nM and the TGI (SF-539 CNS) was 2820 nM. It also gave a GI50 (SK-MEL-28 melanoma) of 572 nM, a TGI (SK-MEL-28 melanoma) of 2360 nM and a GI50 (OVCAR-3 ovarian) of 384 nM. For the same compound, the TGI (OVCAR-3 ovarian) was 1810 nM, the GI50 (MDA-MB-435 melanoma) was 1440 nM and the TGI (MDA-MB-435 melanoma) was > 19.7 µM. For the same compound, the GI50 (SF-268 CNS) was 331 nM, the TGI (SF-268 CNS) was 1410 nM and the GI50 (HOP-92 NSCLC) was 1700 nM. For the same compound, the TGI (HOP-92 NSCLC) was > 23.9 µM, the GI50 (LOX IMVI melanoma) was 312 nM and the TGI (LOX IMVI melanoma) was 1660 nM. For the same compound, the GI50 (TK-10 renal) was 819 nM, the TGI (TK-10 renal) was > 100 µM and the GI50 (UACC-62 melanoma) was 240 nM. For the same compound, the TGI (UACC-62 melanoma) was 1080 nM, the GI50 (MCF7 breast) was 408 nM and the TGI (MCF7 breast) was > 100 µM. For the same compound, the GI50 (MOLT-4 leukemia) was 506 nM, the TGI (MOLT-4 leukemia) was 1620 nM and the GI50 (NCI-H460 NSCLC) was 815 nM. The TGI (NCI-H460 NSCLC) was 3.56 µM, the GI50 (SN12C renal) was 668 nM and the TGI (SN12C renal) was 3.52 µM. The GI50 (M14 melanoma) was 980 nM, the TGI (M14 melanoma) was 3.86 µM and the GI50 (HOP-62 NSCLC) was 330 nM. For the same compound, the TGI (HOP-62 NSCLC) was 1500 nM, the GI50 (DU-145 prostate) was 402 nM and the TGI (DU-145 prostate) was 3.75 µM. It also gave a GI50 (NCI-H23 lung) of 568 nM, a TGI (NCI-H23 lung) of 2240 nM and a GI50 (UACC-257 melanoma) of 1600 nM. The TGI (UACC-257 melanoma) was 3.44 µM, the GI50 (A498 renal) was 448 nM and the GI50 (SF-295 CNS) was 1210 nM. The TGI (SF-295 CNS) was 5.07 µM, the GI50 (SNB-75 CNS) was 592 nM and the TGI (SNB-75 CNS) was 2180 nM.
